Values after ≈ are worked out from the molar mass of the structure shown.

Broadly, the logP is the decadic logarithm of the partition coefficient of the neutral form, usually between octanol and water. Lower therefore signals a more hydrophilic compound. By solubility is commonly meant the concentration that dissolves in the medium under given conditions. Usually logD stands for the decadic logarithm of the distribution of all forms, ionised or not, between an organic phase and buffer at a given pH. Read a low logD as lower lipophilicity.

Compound `CCC(C)Nc1c([N+](=O)[O-])cc(C(C)(C)C)cc1[N+](=O)[O-]` (stereo unspecified) came in with a logP of 4.93. Regarding `CC(C)(C)C(O)/C(=C\c1ccc(Cl)cc1)n1cncn1` (stereo unspecified), the logP is 3.67. The same measure, in the same setting: with `CCCSP(=S)(OCC)Oc1ccc(SC)cc1` (stereo unspecified) the figure was 5.48; with `CCOC(=O)C1(C)OC(=O)N(c2cc(Cl)cc(Cl)c2)C1=O` (stereo unspecified), 3.15. With `Cc1ccc(NC(O)=NC(C)(C)c2ccccc2)cc1`, the solubility (20 °C) worked out at 0.00447 mM (≈ 1.2 µg/mL). `COc1nn(CSP(=S)(OC)OC)c(=O)s1` showed a log partition coefficient (logP) of 2.2.

`CC1(C)OC[C@@H]2O[C@@]3(C(=O)O)OC(C)(C)O[C@H]3[C@@H]2O1` gave a logP of 1.35. The same measure, in the same setting: with `CN(C(O)=NC(C)(C)c1ccccc1)c1ccccc1` the figure was 3.01; with `CCNP(=S)(OC)O/C(C)=C/C(=O)OC(C)C` (stereo unspecified), 3.82.

`O=C1c2ccccc2C(=O)N1SC(Cl)(Cl)Cl` came in with a solubility (25 °C) of 0.0027 mM (≈ 0.8 µg/mL). `O=CNC(N1CCN(C(NC=O)C(Cl)(Cl)Cl)CC1)C(Cl)(Cl)Cl` (stereo unspecified) gave a logP of 2.2.

Compound `CC1(C)[C@H](C(=O)O[C@H](C#N)c2cccc(Oc3ccccc3)c2)[C@@H]1/C=C\C(=O)OC(C(F)(F)F)C(F)(F)F` displayed a solubility (25 °C) of 3.69e-05 mM (≈ 0.02 µg/mL). Still for that read-out and setting: in the case of `CCC1(CC2(c3cccc(Cl)c3)CO2)C(=O)c2ccccc2C1=O` (stereo unspecified) it was 0.0411 mM (≈ 14 µg/mL).

Compound `CC#CCOC(C)c1ccc(OC)c(OC)c1` (stereo unspecified) came in with a logP of 2.4 and a solubility of 0.00427 mM (≈ 1 µg/mL). Consider `CC(C)OC(=O)c1cc(C(=O)OC(C)C)cc([N+](=O)[O-])c1`, for which the solubility (20 °C) amounted to 0.00914 mM (≈ 2.7 µg/mL). Consider `CCCN(CC)CC1COC2(CCC(C(C)(C)C)CC2)O1` (stereo unspecified), for which the solubility (pH 7.0, 20 °C) amounted to 1.58 mM (≈ 470 µg/mL). `CC(C)C1(C)N=C(c2nc3ccccc3cc2C(=O)O)NC1=O` (stereo unspecified) registered a solubility (25 °C) of 0.289 mM (≈ 90 µg/mL).

The compound `O=C(Nc1ccc(F)cc1F)c1cccnc1Oc1cccc(C(F)(F)F)c1` displayed a solubility (25 °C) below 0.000127 mM. As to `CCOc1ccc([Si](C)(C)CCCc2ccc(F)c(Oc3ccccc3)c2)cc1`, the logP was 8.2. As for `C#CCOc1cc(-n2nc(C(C)(C)C)oc2=O)c(Cl)cc1Cl`, the logP came out at 3.95. Also, under “20 °C”, the solubility was 0.00108 mM (≈ 0.37 µg/mL). Consider `CS(=O)(=O)c1ccc(C(=O)C2C(=O)CCCC2=O)c(Cl)c1`, for which the solubility (25 °C) was 0.502 mM (≈ 165 µg/mL).

Compound `FC(F)C(F)(F)OCC(Cn1cncn1)c1ccc(Cl)cc1Cl` (stereo unspecified) came in with a lipophilicity (logP) of 3.56. Consider `O=C(Nc1ccc(Cl)cc1C(O)c1ccccc1)c1ccncc1` (stereo unspecified), for which the logP is 3.13. With `O=C(Nc1ccc(Cl)c(Cl)c1)Nc1cc(Cl)ccc1Oc1ccc(Cl)cc1S(=O)(=O)[O-].[Na+]`, the lipophilicity (logP) amounted to 1.89.

For `COC(C)(C)CCCC(C)C/C=C/C(C)=C/C(=O)OC(C)C` (stereo unspecified), the solubility came out at 0.00451 mM (≈ 1.4 µg/mL). `CCC(Nc1ncnc(C)c1Cl)c1ccc(OC(F)F)cc1` (stereo unspecified) showed a solubility of 0.101 mM (≈ 33 µg/mL). For `CCc1nn(C)c(C(=O)NCc2ccc(C(C)(C)C)cc2)c1Cl`, the logP turned out to be 4.61. Compound `CC(C)OC(=O)C(C(=O)OC(C)C)=C1SCCS1` registered a solubility (25 °C) of 0.175 mM (≈ 50.9 µg/mL).

With `CCCCCCCCSC(=O)Oc1cc(Cl)nnc1-c1ccccc1`, the solubility (20 °C) turned out to be 0.00396 mM (≈ 1.5 µg/mL).

In turn, `C[N+]1(C)CCCCC1.[Cl-]` displayed a logD (pH 7.0) of -2.82. Compound `CC#Cc1cc(C)nc(Nc2ccccc2)n1` showed a logP of 3.28. The compound `O=C([O-])C(F)(F)C(F)F.[Na+]` had a logP of 1.32. Further, the solubility (20 °C) turned out to be 131 mM. Compound `O=c1oc2ccccc2c(O)c1C1CC(c2ccc(-c3ccc(Br)cc3)cc2)Cc2ccccc21` (stereo unspecified) yielded a logP of 8.5. For `CSC(=O)c1cccc2nnsc12`, the log partition coefficient (logP) is 3.1. The same compound had a solubility (25 °C) of 0.0366 mM (≈ 7.7 µg/mL).

`CCN(Cc1c(F)cccc1Cl)c1c([N+](=O)[O-])cc(C(F)(F)F)cc1[N+](=O)[O-]` showed a lipophilicity (logP) of 5.45. Still for that read-out and setting: with `Cc1cc(C2CC2)nc(Nc2ccccc2)n1` the figure was 4. For the setting “25 °C”, `C#CC(OC(=O)C1C(C=C(C)C)C1(C)C)/C(C)=C/CC` (stereo unspecified) displayed a solubility of 0.000404 mM (≈ 0.111 µg/mL). Compound `COC(=O)c1c(Cl)nn(C)c1S(=O)(=O)NC(=O)Nc1nc(OC)cc(OC)n1` displayed a solubility (pH 5.0, 20 °C) of 0.0343 mM (≈ 14.9 µg/mL). Moreover, where the note is “pH 7.0”, the pH-dependent lipophilicity (logD) is -0.02.

`O=C(NC(=O)c1ccccc1Cl)Nc1ccc(OC(F)(F)F)cc1` registered a logP of 4.91. In addition, the solubility (20 °C) was 6.97e-05 mM (≈ 0.025 µg/mL). Compound `CCOC(=O)C1CC(=O)C(=C(O)C2CC2)C(=O)C1` (stereo unspecified) came in with a logP of 1.6. On to `O=C1CC(C(=O)O)CC(=O)C1=C(O)C1CC1` (stereo unspecified), for which, under “pH 2.0”, the logD was found to be 1.8. For the setting “pH 5.0, 20 °C”, this compound gave a solubility of 5.8 mM (≈ 1300 µg/mL). In the case of `CNC(=O)N(C)c1nnc(C(C)(C)C)s1`, the solubility (25 °C) was found to be 10.5 mM (≈ 2400 µg/mL). For the compound `Cc1cc(C)nc(Nc2ccccc2)n1`, the logD (pH 6.1) amounted to 2.84. For the same compound, the solubility (pH 6.1, 25 °C) is 0.607 mM (≈ 121 µg/mL). Where the note is “pH 7.4, 20 °C”, `NC(=O)c1nc(-c2ccccc2)n(-c2ccc(Cl)c(COCC(F)(F)C(F)(F)F)c2)n1` yielded a solubility of 0.00217 mM (≈ 1 µg/mL). `CCCN(CCC)c1c([N+](=O)[O-])cc(S(N)(=O)=O)cc1[N+](=O)[O-]` registered a logP of 3.73. Same read-out and setting: with `CCN(CC)C(=O)n1cnc(S(=O)(=O)c2c(C)cc(C)cc2C)n1` the figure was 3.21; with `Nc1c(Cl)cc([N+](=O)[O-])cc1Cl`, 2.8; with `CCOC(=O)[C@@H](C)Oc1ccc(Oc2nc3ccc(Cl)cc3o2)cc1`, 4.58. Same read-out and setting: in the case of `CCN(CC)C(=O)C(Cl)=C(C)OP(=O)(OC)OC` it was 0.79. In turn, `CC(C)(SC(=O)N1CCCCC1)c1ccccc1` yielded a logP of 4.02. This compound also yielded a solubility (25 °C) of 0.0759 mM (≈ 20 µg/mL). In the same order, the values of `CCCCOCCOCCOCc1cc2c(cc1CCC)OCO2` are 4.75 and 0.0422 mM (≈ 14.3 µg/mL). Consider `N#Cc1c(Cl)cccc1Cl`, for which the solubility (20 °C) was 0.105 mM (≈ 18 µg/mL).

With `CNC(=O)ON=C(C)C(C)SC` (stereo unspecified), the log partition coefficient (logP) is 1.1. Also, the solubility (20 °C) was 184 mM (≈ 35000 µg/mL). `C=C/C=C\CC1=C(C)[C@@H](OC(=O)[C@@H]2[C@@H](C=C(C)C)C2(C)C)CC1=O` displayed a log partition coefficient (logP) of 5.9. Still for that read-out and setting: with `CCCCOC(=O)C1(O)c2ccccc2-c2ccccc21` the figure was 3.7. For the compound `CCOCOc1ccc(C(=O)Nc2cccc(Cl)c2Cl)cc1`, the logP is 4.3. Also, the solubility (25 °C) is 0.0027 mM (≈ 0.92 µg/mL).

On to `CC(C)(C)c1cc([N+](=O)[O-])cc([N+](=O)[O-])c1O`, for which the solubility (pH 5.0, 20 °C) was determined as 0.0187 mM (≈ 4.5 µg/mL). As to `COc1cc(OC)nc(N=C(O)NS(=O)(=O)N(C)S(C)(=O)=O)n1`, the lipophilicity (logP) stood at 1.63.

In the case of `CCCN(CCC)c1c([N+](=O)[O-])cc(C(F)(F)F)c(N)c1[N+](=O)[O-]`, the lipophilicity (logP) stood at 4.1. With `CCOP(=O)(SC(C)CC)SC(C)CC` (stereo unspecified), the logP came to 3.9. The same compound gave a solubility (25 °C) of 0.917 mM (≈ 248 µg/mL). `CCNc1nc(Cl)nc(NC(C)(C)C)n1` yielded a log partition coefficient (logP) of 3.21. Further, the solubility (pH 7.0, 20 °C) turned out to be 0.0396 mM (≈ 9.09 µg/mL).

`CCCCOCN(C(=O)CCl)c1c(CC)cccc1CC` showed a solubility (20 °C) of 0.0688 mM (≈ 21.4 µg/mL). `CCSCCSP(=S)(OC)OC` yielded a logP of 3.15. Same read-out and setting: in the case of `CCS(=O)CCSP(=O)(OC)OC` (stereo unspecified) it was -0.74. Turning to `C=CCC1=C(C)C(OC(=O)C2C(C=C(C)C)C2(C)C)CC1=O` (stereo unspecified), the solubility (25 °C) is 0.0152 mM (≈ 4.6 µg/mL). Where the note is “pH 5.0”, `CCOc1nc(NC)nc(NC(=O)NS(=O)(=O)c2ccccc2C(=O)OC)n1` returned a logD of 1.59. In addition, the solubility (pH 5.0, 25 °C) was 0.00414 mM (≈ 1.7 µg/mL). Take `C/C=C(\C)C(=O)O[C@H]1C[C@@H](OC(C)=O)[C@@]2(C(=O)OC)CO[C@H]3[C@@H](O)[C@@](C)([C@]45O[C@@]4(C)[C@H]4C[C@@H]5O[C@@H]5OC=C[C@@]54O)[C@H]4[C@]1(CO[C@]4(O)C(=O)OC)[C@@H]32`: the lipophilicity (logP) came to 1.09. In the case of `CNC(=O)ON=C(SC)C(=O)N(C)C`, under “25 °C”, the solubility stood at 1280 mM (≈ 280000 µg/mL).

`ClC=CCCl` (mixture of isomers) showed a logP of 2.04. On the same count and under the same terms, in the case of `COCc1cnc(C2=NC(C)(C(C)C)C(=O)N2)c(C(=O)O)c1` (stereo unspecified) it was 0.73. In the case of `CCOCCOC(=O)C(C)Oc1ccc(Oc2ncc(C(F)(F)F)cc2Cl)cc1` (stereo unspecified), the solubility (20 °C) is 0.00134 mM (≈ 0.58 µg/mL).
